# Reference: the supplement of paper PMC10307832
# Assays:
# Assay in all cases: relative viability (nuclei count vs DMSO), 5 days (fraction); higher = more cells survive
# QS11 = compound: C1CC2=C(C1)C=C(C=C2)OC3=NC(=C4C(=N3)N(C=N4)CC5=CC=C(C=C5)C6=CC=CC=C6)N[C@@H](CC7=CC=CC=C7)CO [QS11]
# How it was run: (§1)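 Five library-drug doses, separated by factors of √10, were pinned into 1536-well plates holding lung cancer cell lines after an overnight stay at 37 °C. Cells were fixed, permeabilised and Hoechst-stained in one step after 5 days without medium change, then imaged at 4×. Viability compares treated-well with vehicle-well nuclei, counted in MetaXpress, as a median across plates. Passing plates had control CV below 25% and at least one doubling.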
# AZ628 = compound: CC1=C(C=C(C=C1)NC(=O)C2=CC(=CC=C2)C(C)(C)C#N)NC3=CC4=C(C=C3)N=CN(C4=O)C [AZ628]
# How it was run: as §1
# Darinaparsin = compound: C[As](C)SC[C@H](NC(=O)CC[C@H](N)C(=O)O)C(=O)NCC(=O)O [Darinaparsin]
# How it was run: as §1
Cell Line,relative viability (QS11; 0.08 µM),relative viability (QS11; 0.253 µM),relative viability (QS11; 0.8 µM),relative viability (QS11; 2.53 µM),relative viability (QS11; 8 µM),relative viability (AZ628; 0.08 µM),relative viability (AZ628; 0.253 µM),relative viability (AZ628; 0.8 µM),relative viability (AZ628; 2.53 µM),relative viability (AZ628; 8 µM),relative viability (Darinaparsin; 0.08 µM),relative viability (Darinaparsin; 0.8 µM),relative viability (Darinaparsin; 2.53 µM),relative viability (Darinaparsin; 8 µM)
UMC-11,0.952,0.979,0.992,1.17,1.22,1.07,0.974,0.992,0.943,1.08,0.997,0.949,0.926,1.03
LCLC-103H,1.01,1,0.749,0.988,1.05,0.99,0.891,1.07,0.998,0.903,1.15,0.923,0.976,1.15
LU99A,0.868,0.99,1.02,1.02,0.834,0.883,0.807,0.875,1.03,0.65,0.929,1.05,0.991,1.09
LXF-289,1,1.04,0.732,0.902,0.809,1,0.986,0.906,0.98,0.722,1.04,0.994,0.941,1.13
EPLC-272H,0.698,1.02,0.949,0.995,0.908,0.955,0.848,0.971,0.953,0.628,0.8,0.841,0.902,0.992
LOU-NH91,0.979,0.93,0.78,0.98,0.966,0.971,0.926,0.958,0.963,0.797,1.03,0.921,0.954,1.02
HCC-44,1.07,0.913,0.735,0.969,0.83,1.02,1.03,0.988,0.987,0.984,0.964,0.957,0.987,0.996
NCI-H1651,0.906,1.01,0.857,0.988,0.899,0.986,1.01,0.986,1.08,1.12,1.15,1,0.942,1.18
NCI-H1915,0.993,1.04,–,0.872,0.871,0.994,0.939,0.796,0.731,0.464,1.04,0.964,0.965,1.1
NCI-H2009,1.03,1.01,0.756,0.902,0.894,0.948,0.933,0.598,0.711,0.379,1.12,1.03,0.949,1.03
COR-L 105,0.895,0.89,0.822,0.892,0.831,1.01,1.14,0.951,0.928,0.592,0.996,0.986,0.781,1.03
ABC-1,1,0.957,0.895,1.17,1.15,1.12,0.727,0.873,0.793,0.767,0.952,0.956,0.928,0.968
NCI-H1793,0.866,0.807,1.05,1.07,1.09,1.1,0.829,0.957,0.783,0.61,0.981,0.934,0.707,1.02
NCI-H1792,0.738,0.903,0.827,0.823,0.669,1.11,0.833,0.766,0.746,0.456,0.929,1.01,–,1.28
ChaGo-K-1,–,1,1.11,1.09,1.14,1.14,0.965,0.984,1.06,1.01,1.07,1.01,0.949,1.03
NCI-H2342,0.888,1.02,1.07,0.998,0.998,1.1,0.898,1.02,0.935,0.995,0.953,0.888,0.939,1.08
NCI-H1975,0.954,0.881,1.04,1.23,1.34,0.927,0.85,0.889,0.94,0.768,0.992,1.01,0.906,1.05
CAL-12T,0.96,0.986,0.96,0.908,0.873,0.987,0.831,0.81,0.806,0.685,1.15,1,0.985,1.11
NCI-H1648,0.748,0.972,0.744,0.978,1.11,1.14,1.08,0.726,0.597,0.641,0.735,0.803,–,0.975
NCI-H358,0.92,0.99,1.11,1.37,1.01,0.846,0.654,0.598,0.583,0.435,1.07,0.872,0.832,0.984
NCI-H3122,1.03,1.07,–,1.11,0.972,0.956,0.736,0.648,0.598,0.403,1.06,1.01,1.01,1.16
NCI-H2347,0.938,1.05,0.873,0.906,0.906,0.775,0.895,0.854,0.76,0.485,1.05,0.961,0.994,1.19
HCC-15,1.02,1.06,0.693,0.971,0.915,1.02,0.924,0.858,0.86,0.56,1.18,1,0.992,1.14
HCC-366,1.01,1.01,–,0.98,0.447,1.01,0.952,0.884,0.955,0.876,1.01,1.07,1.03,1.32
BEN,0.821,1.03,1.13,1.1,1.25,1.11,0.838,0.899,1.01,0.843,1.08,1.03,0.92,1.3

Cell Line,relative viability (QS11; 0.08 µM),relative viability (QS11; 0.253 µM),relative viability (QS11; 0.8 µM),relative viability (QS11; 2.53 µM),relative viability (QS11; 8 µM),relative viability (AZ628; 0.08 µM),relative viability (AZ628; 0.253 µM),relative viability (AZ628; 0.8 µM),relative viability (AZ628; 2.53 µM),relative viability (AZ628; 8 µM),relative viability (Darinaparsin; 0.08 µM),relative viability (Darinaparsin; 0.8 µM),relative viability (Darinaparsin; 2.53 µM),relative viability (Darinaparsin; 8 µM)
NCI-H1993,1.02,0.884,0.918,0.992,0.824,0.995,0.848,0.835,0.735,0.515,1.02,0.885,1.03,0.922
NCI-H2405,0.976,0.992,0.875,1.09,1.07,0.724,0.476,0.612,0.67,0.558,1.09,0.926,0.975,1.04
NCI-H2126,0.994,0.944,0.905,0.965,0.799,1.04,1,0.888,1.02,0.985,1.1,1.03,0.956,1.12
LK-2,0.99,1.21,1.09,0.956,1.3,1.29,0.983,0.977,0.857,0.467,1.16,0.83,0.982,1.26
SK-MES-1,1.12,0.952,0.941,0.95,0.946,0.945,0.99,0.923,0.92,0.595,1.15,1.05,0.948,1.26
NCI-H1944,0.999,0.947,–,0.958,0.884,1.06,0.917,0.792,0.729,0.727,1,0.997,0.959,1.14
NCI-H1703,0.94,0.908,0.901,1.04,0.923,0.597,0.395,0.32,0.303,0.245,1.43,1.09,0.889,1.07
SW 1573,1.04,0.961,1.01,0.896,0.655,0.984,0.863,0.696,0.812,0.564,1.21,0.971,0.966,1.19
PC-14,0.821,1.06,0.888,1.04,0.895,1.07,0.938,0.907,0.959,0.674,1.05,0.97,1.02,1.22
LC-2-ad,1.01,1.05,0.808,0.972,0.955,1.07,0.911,0.88,0.928,0.768,1.06,0.996,1.01,1.2
201T,0.994,0.909,0.819,0.895,0.828,1.03,0.997,1.07,1.06,1.04,0.996,0.998,0.947,0.986
NCI-H2023,1.04,0.987,0.895,1.09,0.805,1.11,1.03,0.974,0.915,0.674,1.08,0.952,0.992,1.23
HOP-62,1.06,1.09,0.867,0.922,0.88,1.07,1.07,0.937,1.09,0.573,1.07,1.08,0.95,1.08
NCI-H661,0.992,0.977,0.853,1.01,1.03,1.08,1.05,0.861,0.938,0.842,0.999,1.01,1.03,1.12
NCI-H1734,0.99,1.01,0.945,0.874,0.725,1.08,0.974,0.919,0.913,0.514,1.06,0.993,0.971,1.16
EKVX,0.973,0.922,0.602,0.907,1.06,1.05,0.959,1,0.939,0.774,1.04,0.922,0.943,1.04
NCI-H1355,0.933,0.918,0.769,0.981,0.986,1.02,0.975,0.956,0.938,0.781,1.06,0.939,0.865,1.1
Calu-6,1.11,1.06,0.941,1.1,1.07,1.02,0.899,0.754,0.784,0.207,1.2,0.99,1.01,1.14
NCI-H1650,0.941,0.786,0.72,0.962,0.867,1.13,1.1,1.09,0.904,0.888,0.971,0.951,0.833,1.03
H3255,0.947,1.01,–,1.01,1.08,0.996,0.908,0.975,1.02,0.693,1.02,1.01,0.896,1.01
IA-LM,1,1.1,0.576,0.902,0.996,1.15,0.871,0.589,0.607,0.266,1.16,1.05,1.16,1.12
NCI-H23,0.995,0.85,0.832,0.832,0.831,1.01,0.838,0.721,0.799,0.543,1.06,0.843,1.11,1.14
NCI-H1755,1.03,0.983,0.638,0.861,0.783,0.992,1.02,0.97,0.989,0.948,1.12,0.964,0.945,1.13
NCI-H650,0.841,0.908,1.01,0.932,0.89,1.13,1.05,1.3,1.1,1.26,0.988,1.01,0.967,0.947
